Columns and labels:
CYP26A1 = CYP26A1 (Homo sapiens (Human), UniProt O43174); experiment: Cell-based inhibitor assay ([3H]-RA metabolism), CYP26A1 stably transfected HeLa cells
Method: CYP26A1 or CYP26B1 stably transfected HeLa cells were maintained in Minimum Essential Medium (MEM) containing 10% fetal bovine serum (FBS) and 100 μg/mL hygromycin. Exponentially growing cells were harvested by incubation in trypsin. Cells were then collected and re-plated in 48-well culture plates at 5×10^5 cells in 0.2 mL of culture medium containing 0.05 μCi [^3H]-RA in the presence or absence of increasing concentrations of a test compound. The test compounds were diluted in dimethyl sulfoxide (DMSO) and then added in duplicate to wells at 0.01, 0.1, 1, 10 and 100 μM final concentration. As a positive control for inhibition of RA metabolism, cells were also incubated with ketoconazole at the same concentrations as above. Cells were incubated for 3 hours at 37° C. Retinoids were then extracted using the procedure of Bligh, et al., (1959), Canadian Journal of Biochemistry 37, 911-917, which was modified by using dichloromethane instead of chloroform. Each sample's water soluble radioactivity level was quantified using a β-scintillation counter (using Ecolume scintillation fluid, available from MP Biomedicals of Solon, Ohio, USA). IC50 values represented the concentration of inhibitor required to inhibit all trans-RA metabolism by 50%, and were derived from log transformed data.

human AML THP-1 cells = experiment: Leukemia cell differentiation by FACS (PE-CD11b), THP-1 cells with or without OP9 stroma; type: cell-based
Method: (§1) Many human non-APL AML cell lines are sensitive to RA-induced differentiation. However, co-culture of leukemic cells with bone marrow stromal cells can block this effect of RA. This assay tests the ability of CYP26 inhibitor compounds to overcome the protective effect that stromal cells have on leukemic cell differentiation. For these experiments, OP9 mouse bone marrow stromal cells are grown MEM-α containing 20% FBS, in 24 well plates until a cell monolayer is formed. OP9 cells are then irradiated (15Gy) using a GammaCell 20 cesium-137 source (located at Queen's University) in order to induce growth arrest. Leukemic cells are then added to the irradiated monolayers, or control wells without OP9 cells. AML cell lines (150,000 cells) are then plated onto OP9 monolayers in their appropriated growth medium; THP-1 RPMI-1640 medium containing 10% FBS; MDSL, RPMI-1640 medium containing 10% FBS and 10 ng/ml recombinant human IL-3; Kasumi-1, RPMI-1640 containing 20% FBS; MV4-11, IMDM containing 10% FBS. Cells are then treated for 72 hours with DMSO (vehicle control), RA (0.1 μM for THP-1 and MV4-11 cells, and 1 μM for Kasumi-1 cells), test CYP26 inhibitor compound, or the combination of RA and inhibitor compound. After the treatment period, leukemic cells are collected and stained with fluorophore labeled antibodies against cell surface antigens indicative of myeloid differentiation (PE-CD11b), or of stem cell populations (FITC-CD34, PE-CD38); all antibodies are available from BD Biosciences. Stained cells are then sorted by FACS in a BD FACS Aria 3 flow cytometer (Queen's University) using FACS Diva software, to assess percentage of cells that are CD11b^+, the relative expression levels of CD11b (by median fluorescence intensity—MFI), or percentage of CD34^+CD38^− leukemic stem cells (LSCs). Results are typically presented as the average of triplicates.

MV4-11 cells = experiment: Leukemia cell differentiation by FACS (CD11b+), MV4-11 cells with or without stroma; type: cell-based, human; conditions: RA plus compound, in the presence of stroma
Method: as §1, with “Cells are then treated for 72 hours with DMSO (vehicle control), RA (0.1 μM for THP-1 and MV4-11 cells, and 1 μM for Kasumi-1 cells), test CYP26 inhibitor compound, or the combination of RA and inhibitor compound. After the treatment period, leukemic cells are collected and stained with fluorophore labeled antibodies against cell surface antigens indicative of myeloid differentiation (PE-CD11b), or of stem cell populations (FITC-CD34, PE-CD38); all antibodies are available from BD Biosciences.” left out, “Results are typically presented as the average of triplicates.” left out

Chain of CYP26A1 (O43174 whole entry): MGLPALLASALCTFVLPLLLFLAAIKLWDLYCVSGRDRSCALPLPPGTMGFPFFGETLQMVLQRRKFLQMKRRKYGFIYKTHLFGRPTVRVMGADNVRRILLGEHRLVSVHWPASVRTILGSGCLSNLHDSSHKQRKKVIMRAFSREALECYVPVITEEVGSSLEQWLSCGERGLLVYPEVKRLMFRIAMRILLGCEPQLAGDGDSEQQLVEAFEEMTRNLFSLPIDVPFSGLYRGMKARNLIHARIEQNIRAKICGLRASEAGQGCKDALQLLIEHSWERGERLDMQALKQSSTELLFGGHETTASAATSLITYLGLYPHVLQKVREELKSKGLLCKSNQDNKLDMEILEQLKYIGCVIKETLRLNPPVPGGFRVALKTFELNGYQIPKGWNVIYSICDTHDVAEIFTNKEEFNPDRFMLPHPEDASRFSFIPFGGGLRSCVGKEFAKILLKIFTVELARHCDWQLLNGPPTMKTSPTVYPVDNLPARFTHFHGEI

CC(C)(C)c1cccc(-c2cc3cc(/C=C/C(=O)O)ccc3[nH]2)c1 [Compound 026]
CYP26A1 inhibition compared with ketoconazole (CYP26A1; FIG. 1): comparable to ketoconazole | IC50 (CYP26A1; HeLa cell-based assay, 3 hours): 7 µM | CYP26A1 Rel. to keto (CYP26A1; IC50 relative to ketoconazole): 4.4 | PE-CD11b MFI (human AML THP-1 cells; 0.1 μM RA plus 1 μM compound, OP9 stroma present, 72 hours): greatly enhanced CD11b MFI | Sensitization to low doses of RA (human AML THP-1 cells; in the presence of stroma): sensitized THP-1 cells to low doses of RA | RA-induced differentiation (CD11b+ cells) (MV4-11 cells): rescued RA-induced differentiation in the presence of stroma

— US11358933B2, “Compounds and methods for inhibiting CYP26 enzymes” (Queen's University at Kingston, priority 2017, dated 2022)
